{"source": "patent US20250199015A1", "about": "“CYCLIN-DEPENDENT KINASE 2 INHIBITORS FOR MEDICAL TREATMENT” (INCYCLIX BIO, LLC, priority 2022, published 2025)", "key": {"human OAT1": {"target": "T1, human OAT1 (Homo sapiens, UniProt Q4U2R8)", "T1 construct": "expressed in transfected cells; host or cells: HEK293", "T1 sequence (Q4U2R8 whole entry)": "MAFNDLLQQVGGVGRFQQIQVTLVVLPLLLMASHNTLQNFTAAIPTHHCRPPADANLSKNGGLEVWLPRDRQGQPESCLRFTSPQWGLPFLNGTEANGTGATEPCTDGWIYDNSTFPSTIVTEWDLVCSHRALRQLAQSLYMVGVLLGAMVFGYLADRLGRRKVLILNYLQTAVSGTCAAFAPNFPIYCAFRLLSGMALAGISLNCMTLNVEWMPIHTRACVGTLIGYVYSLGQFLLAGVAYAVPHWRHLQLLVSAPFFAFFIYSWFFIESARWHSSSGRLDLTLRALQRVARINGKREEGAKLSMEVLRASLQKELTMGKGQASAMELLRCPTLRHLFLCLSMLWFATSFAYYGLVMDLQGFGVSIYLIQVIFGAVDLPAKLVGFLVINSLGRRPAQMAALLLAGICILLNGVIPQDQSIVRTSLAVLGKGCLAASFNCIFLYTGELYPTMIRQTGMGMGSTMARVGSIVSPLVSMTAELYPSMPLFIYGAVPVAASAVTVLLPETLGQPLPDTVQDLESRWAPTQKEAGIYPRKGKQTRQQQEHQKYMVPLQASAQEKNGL", "assay": "SLC transporter inhibition in HEK293 cells", "type": "in vitro ADME"}, "OVCAR-3 cells": {"system": "OVCAR-3 cells", "assay": "Cell cycle by EdU flow cytometry (dose, time, washout, tracing)", "type": "cell-based, human", "method": "Cells were plated at 100,000 cells/well in Corning 6 cm tissue culture treated plates. […] Cells were collected and fixed in 1% paraformaldehyde. Cells were incubated with Alexa488 azide dye as described by Thermo Scientific. Cells were then incubated with Fxcycle-violet and RNase. Cells were analyzed on a BD Celesta and data compiled using FloJo and GraphPad.\nThe OVCAR3 human ovarian carcinoma cell line was grown in RPMI-1640/1× Glutamax/1× Insulin/10% fetal bovine serum and was plated at 300,000 cells/well in Corning 6 cm tissue culture treated plates. […] Cells were treated for the indicated amount of time (24 hours or 48 hours), with 10 μM EdU added for the last hour of treatment. Cells were collected and fixed in 1% paraformaldehyde. Cells were incubated with Alexa 488 (A488) azide dye as described by Thermo Scientific. Cells were then incubated with FarRed dye and RNase. Cells were analyzed on a BD Celesta and data compiled using FloJo and GraphPad Prism (FIG. 13A-B).\nThe OVCAR3 human ovarian carcinoma cell line was grown in RPMI-1640/1× Glutamax/1× Insulin/10% fetal bovine serum and was plated at 300,000 cells/well in Corning 6 cm tissue culture treated plates. […] At 24 hours, the remaining plates were rinsed with media before un-treated media was added back. Cells were collected at the indicated times, with 10 μM EdU added for the last hour (FIG. 14A). Cells were collected and fixed in 1% paraformaldehyde. Cells were incubated with Pacific blue azide dye as described by Thermo Scientific. Cells were then incubated with FarRed dye and RNase. Cells were analyzed on a BD Celesta and data compiled using FloJo and GraphPad. […] By 18 hours, OVCAR-3 cells were in G2 or reentering G1. Cells appeared to remain somewhat synchronized over 48 hours.\nThe OVCAR3 human ovarian carcinoma cell line was grown in RPMI-1640/1× Glutamax/1× Insulin/10% fetal bovine serum and was plated at 300,000 cells/well in Corning 6 cm tissue culture treated plates. […] Cells were divided into two sets. The first set was treated for the indicated amount of time, with 10 μM EdU added for the last hour of treatment before being collected. The second set of cells were treated for the indicated amount of time and had EdU added for one hour before the timepoint. Then the media was aspirated, the cells washed, and re-treated with treatment media. The second set of cells was collected at 48 hours, allowing for tracing of the EdU positive cells. Cells were collected and fixed in 1% paraformaldehyde. Cells were incubated with Alexa 488 (A488) azide dye as described by Thermo Scientific. Cells were then incubated with FarRed dye and RNase. Cells were analyzed on a BD Celesta and data compiled using FloJo and GraphPad. […] Several “snap shots” of cells at various timepoints, followed by where the cells from S phase ended up at the end of 48 hours of treatment, were collected. […] It appears that the cells in S phase at after 6 hours of treatment are arresting in G1 (FIG. 15B). At 24 hours of treatment, little to no cells were in S phase so there were no cells to trace (FIG. 15C). Although the DMSO sample appears largely different at 48 hours, the distribution appears similar to the DMSO, EdU free cells at 48 hours. […] (FIG. 15D)."}, "Kuramochi cells": {"system": "Kuramochi cells", "assay": "CellTiter Glo cell proliferation assay", "type": "cell-based, human", "conditions": "CCNE1 gained, six days", "method": "Plates were returned to the incubator for six additional days. On day six post dosing, plates were removed and treated with CellTiter Glo reagent following manufacturer's specifications. Plates were incubated 45 minutes at room temperature and run on Biotek luminometer with 1 sec/well detection. Results were converted to Microsoft Excel and transferred to Graphpad Prism for analysis. […] These cell types are distinguished by either gained of cyclin E1 expression or activation (Kuramochi) or intrinsic amplification of cyclin E1 (OVCAR-3, COV318).\nThe Kuramochi human ovarian carcinoma cell line was grown in RPMI-1640/1× Glutamax/10% fetal bovine serum and the FUOV-1 human ovarian carcinoma cell line was grown in DMEM/F12/1× Glutamax/10% fetal bovine serum and both were plated at 1,000 cells/well in Corning 96 well white wall/clear bottom tissue culture treated plates. […] Plates were removed from incubator at each specified timepoint and treated with CellTiter-Glo (Promega, Inc) following manufacturer specifications. Plates were then read on CLARIOstar luminometer with 1 sec/well integration. Results were converted to Microsoft Excel and transferred to GraphPad Prism for Analysis (FIG. 16A-B)."}, "H69 (NCIH69) cells": {"system": "H69 (NCIH69) cells", "assay": "CellTiter Glo cell proliferation assay (single agent and chemotherapy combination)", "type": "cell-based, human", "method": "(§1) Plates returned to incubator for six additional days. On day six post dosing, plates were removed and treated with CellTiter Glo reagent following manufacturer's specifications. Plates incubated 45 minutes at room temperature and run on a Biotek luminometer with 1 sec/well detection. Results were converted to Microsoft Excel and transferred to GraphPad Prism for analysis.\n(§2) Dose curves ranged from 300 pM to 10 μM in triplicate and treatments lasted for 6 days. Plates were removed from incubator at each specified timepoint and treated with CellTiter-Glo (Promega, Inc) following manufacturer specifications. Plates were then read on CLARIOstar luminometer with 1 sec/well integration.\nas §2, with “integration. Results were converted to Microsoft Excel and transferred to GraphPad Prism for Analysis.” for “integration.”"}, "SHP77 cells": {"system": "SHP77 cells", "assay": "CellTiter Glo cell proliferation assay (single agent and chemotherapy combination)", "type": "cell-based, human", "method": "as §1, §2\nas §2, with “integration. Results were converted to Microsoft Excel and transferred to GraphPad Prism for Analysis.” for “integration.”"}, "pRb T821 in COV318 cells": {"system": "pRb T821 in COV318 cells", "assay": "Western blot pRb", "type": "cell-based, human", "conditions": "30-1000 nM, 24 hours", "method": "Cells were plated at 300,000 cells/well in Corning 6 cm tissue culture treated plates. […] Cells were collected by washing each well twice with cold PBS, then scraping cells in the presence of 75 μL cold RIPA with protease and phosphatase inhibitors. Lysates were clarified by centrifugation at 12,000×g for 15 min at 4° C. and supernatants transferred to clean tubes. A BCA assay was performed to determine the protein concentration of each lysate. […] Protein was transferred to a nitrocellulose membrane and blocked with LI-COR blocking buffer for 1 hour. Membranes were incubated overnight in primary antibody at 4° C. Following 3 washes with TBS-T, membranes were incubated for 60 minutes in LI-COR secondary antibodies. Following 3 washes in TBS-T, and one TBS wash, membranes were scanned using a LI-COR OdysseyCLx. Image studio was used for image analysis."}, "[1]": {"conditions": "100 nM Compound I with camptothecin dose curve, 6 days"}}, "note": "Entries after “also recorded” stand apart in the source; their conditions may differ."}
{"smiles": "NS(=O)(=O)c1ccc(Nc2ncc3cc4n(c3n2)C2(CCCCC2)C(=O)NN4)cc1", "note": "[Compound I]", "values": [{"measurement": "OAT1 inhibition", "setting": "human OAT1", "result": "did not inhibit"}, {"measurement": "Maximum Percent inhibition", "setting": "human OAT1; OAT1, HEK293 cells", "result": 30, "unit": "%"}, {"measurement": "cell cycle distribution with increasing concentrations", "setting": "OVCAR-3 cells; 10 nM to 10 μM, 24 hours", "result": "exit the S-phase and increasingly occupy the G0-G1 phase"}, {"measurement": "G1 arrest over 48 h", "setting": "OVCAR-3 cells; 100 nM", "result": "does not arrest all cells in G1"}, {"measurement": "G1 arrest over 48 h", "setting": "OVCAR-3 cells; 300 nM", "result": "performs just as well"}, {"measurement": "cells arrested in G1", "setting": "OVCAR-3 cells; 300 nM, 24 hours", "result": "Approximately 80%"}, {"measurement": "cells proceeding to S phase compared with PF-07104091", "setting": "OVCAR-3 cells; 1, 6, 24 and 48 hours of treatment", "result": "permits fewer cells to proceed to S phase"}, {"measurement": "fate of cells in S phase at treatment initiation (EdU tracing)", "setting": "OVCAR-3 cells; traced to 48 hours", "result": "become arrested in G1"}, {"measurement": "cell viability compared with palbociclib", "setting": "Kuramochi cells", "result": "potently decreases cell viability; also recorded: at concentrations substantially lower than palbociclib"}, {"measurement": "cellular proliferation IC50, combined with camptothecin, versus single agents", "setting": "H69 (NCIH69) cells; [1]", "result": "lower IC50 value"}, {"measurement": "inhibition compared with palbociclib", "setting": "H69 (NCIH69) cells; six days", "result": "low nanomolar concentrations"}, {"measurement": "cellular proliferation IC50, combined with camptothecin, versus single agents", "setting": "SHP77 cells; [1]", "result": "comparable"}, {"measurement": "inhibition compared with palbociclib", "setting": "SHP77 cells; six days", "result": "low nanomolar concentrations"}, {"measurement": "pRb levels", "setting": "pRb T821 in COV318 cells", "result": "dose-dependent decrease in pRb levels"}]}
